Tests used:
A9 DA neurons = type: in vivo, rat
Source text: Retrograde 6-OHDA lesioning within the striatum is a well-established method of creating progressive degeneration of A9 DA neurons. The loss of TH immunoreactivity reflects actual loss of DA neurons (Sauer, 1994).
The in vivo neuroprotective effects of G-substrate against 6-OHDA-induced toxicity was examined by injecting 6-OHDA into the corpus striatum of rats which previously had either G-substrate or control genes (empty vector or YFP) delivered to the midbrain using the lentivirus as described above. 6-OHDA induced approximately an 80% loss of TH-positive neurons in the midbrain (FIG. 12Q) and complete loss of TH immunoreactivity in the striatum (data not shown). The severity of the striatal insult in this paradigm precluded our ability to usefully measure protection of striatal nerve terminals. […] Furthermore, most of the surviving TH-positive neurons in lenti G-substrate-transduced rats were strongly G-substrate-positive (FIGS. 12G-12L).
Rats received two 2.75 μl stereotaxic injections of either lenti-empty vector+lenti-eGFP (n=19), lenti-G substrate+lenti-eGFP (n=19), or lenti-YFP (n=14) and delivered at a rate of 0.2 μl/min using microinfusion pumps (Stoelting Co, Wood Dale, Ill.) with 10 min wait times after each injection. Lenti-eGFP was added to each condition, excluding the YFP condition, to serve as an exogenous marker for surgical targeting (0.5 μl of the total 5.5 μl A volume). SN injection coordinates were as follows: site 1: AP −4.8, ML −2.0, DV −7.2; site 2: AP −5.5, ML −1.8, DV −7.2; and tooth bar set at −3.3. Virus titers (p24) were as follows: G substrate, 60 ng/μl; empty vector, 60 ng/μl; eGFP, 83 ng/μl; and YFP, 60 ng/μl.
Two weeks following lentiviral injection, animals (lenti-empty vector+lenti-eGFP (n=9), lenti-G substrate+lenti-eGFP (n=9), or lenti-YFP (n=14)) received three 2.5 μl stereotaxic injections of 3.0 μg/μl 6-OHDA (total dose=22.5 μg 6-OHDA) delivered at a rate of 0.5 μl/min and 5 min wait times after each injection. Striatum injection coordinates were as follows: site 1: AP +1.3, ML −2.8, DV −4.5; site 2: AP +0.2, ML, −3.0, DV −5.0; site 3: AP −0.6, ML −4.0, DV −5.5; and tooth bar set at −3.3. The lesion was allowed to progress for 3 weeks after which animals were sacrificed for post mortem analyses.
Brains were cut frozen in the coronal plane at a thickness of 40 μm on a sliding microtome and six series of sections were stored in cryoprotectant. Two full series of sections were processed for visualization of tyrosine hydroxylase (TH) via the biotin-labeled antibody procedure. Briefly, following several washes in a PBS solution containing 0.01% Triton X-100 (PBS-T), endogenous peroxidase was quenched in a 3% hydrogen peroxide solution and background staining was then inhibited in a 5% normal goat serum solution. […]

Akt, GSK3β = assay: In vivo Akt and GSK3β phosphorylation, Western blot of substantia nigra and striata; parameters: species or system rat; details: rats
Experimental: The in vivo effect of G-substrate overexpression on Akt and GSK3β phosphorylation was investigated. Substantia nigra (FIG. 12R) and striata (FIG. 12T) of the control (empty vector) lentivirus and G-substrate injected were dissected and a Western blot analysis was performed.
Animals were deeply anesthetized with an i.p. injection sodium pentobarbital and were sacrificed by exsanguination with the aid of ice-cold saline perfusion. For immunohistochemistry, the brains were then fixed with a 4% paraformaldehyde solution. The brains were then removed from the skull and placed in fresh 4% paraformaldehyde solution for 1 h, and equilibrated through 20% and 30% sucrose solutions and refrigerated until cutting for immunohistochemistry. For immunoblotting, brains injected with lenti-empty vector+lenti-eGFP (n=10) or lenti-G substrate+lenti-eGFP (n=10) were rapidly removed after saline perfusion and sliced coronally using a tissue chopper set to 1 mm (Campden Instruments Ltd., Lafayette, Ind.). On an inverted glass Petri dish over ice, regions of interest (striatum and substantia nigra region) were dissected from the individual 1 mm tissue slices, frozen on dry ice, and stored at −80° C.
Cells and tissue samples were collected from and suspended in lysis buffer containing: 50 mM Tris-HCl, 0.15 M NaCl, 0.32 M sucrose, 1.0 mM EDTA, and 1% NP-40. In addition, phosphatase inhibitors I and II (1:100) and protease inhibitors (1:100) were added fresh prior to cell lysis (Sigma-Aldrich, P2850, P5276, and P8340 respectively). Following cell lysis, the homogenate was centrifuged, a portion of the supernatant was reserved for protein determination (BCA Assay, Pierce, Rockford, Ill.) and the remaining was stored at −20° C. 20 μg (in vitro cell preps) and 50 μg (tissue dissections) of solubilized protein were mixed 1:1 with sample buffer and boiled for 5 min. The samples and molecular weight standards were separated using the Criterion precast 10% SDS-polyacrylamide gel system (Bio-Rad, Hercules, Calif.). […]

[1] = G-substrate versus control lentivirus

G-substrate: human wild type G-substrate (SEQ ID NO.: 1) overexpressed from a lentiviral vector
DA neuronal protection (A9 DA neurons; 6-OHDA-lesioned rats): ~10% | transduced DA neurons protected from 6-OHDA-induced toxicity (A9 DA neurons; worked out from 22.3% transduction and ˜10% protection): approximately 50% | pAkt levels (Akt, GSK3β; substantia nigra and striata, compared to control lentivirus): 1.38 fold | level of pGSK3β in the SN (Akt, GSK3β; [1]): unchanged | level of pGSK3β in the striatum (Akt, GSK3β; [1]): modestly but significantly higher
